Molecules are shown by their SMILES. “And” between values parts separate entries of the source, which are not always exact repeats. Equal entries are not always repeated. “Also recorded” adds a separate entry of the source.

Assay [1] concerns Palmer amaranth. On the set-up: species or system Amaranthus palmeri. The note with it: in vivo.
For assay [2], the system named is Palmer amaranth. Briefly: Greenhouse experiment, GST blockers added to KFD-581-01, Palmer amaranth control and biomass reduction. The note with it: for Palmer amaranth control, relative effectiveness of treatments: 7 DAA; for Palmer amaranth control versus KFD-581-01 applied alone / Reduction in above-ground biomass compared to the untreated check: 14 DAA, higher rates + KFD-581-01 300 g ai/ha. The format is in vivo, Amaranthus palmi.

Setting [3] is: all rates (17, 34, 67 g ai/ha) + KFD-581-01 300 g ai/ha.

Regarding `CP(=O)(O)CCC(N)C(=O)O` (centres unmarked) [Glufosinate, 2-amino-4-[hydroxy(methyl)phosphoryl]butanoic acid], the “Palmer amaranth control (%)” value with Palmer amaranth [1] is 74% and 60% and 74b % and 60c %.
Take `O=C(O)[C@H]1O[C@@H](Oc2cc3oc(-c4ccccc4)cc(=O)c3c(O)c2O)[C@H](O)[C@@H](O)[C@@H]1O` [baicalin]: the “Palmer amaranth control, relative effectiveness of treatments” value in the assay with Palmer amaranth [2] (two highest rates (34 and 67 g ai/ha) + KFD-581-01 300 g ai/ha) is “most effective; also recorded: more effective than any rate of curcumin or NBD-CL”. For the same compound, in the assay with Palmer amaranth [2], the “Palmer amaranth control versus KFD-581-01 applied alone” value is listed as “increased levels of Palmer amaranth control”.
`O=C(O)/C=C/c1ccc(O)c(O)c1` [caffeic acid]: the “Palmer amaranth control, relative effectiveness of treatments” value with Palmer amaranth [2] (setting [3]) was “most effective; also recorded: more effective than any rate of curcumin or NBD-CL”. Further, the “Palmer amaranth control versus KFD-581-01 applied alone” value in the assay on Palmer amaranth [2] is listed as “increased levels of Palmer amaranth control”. In the assay on Palmer amaranth [2] (67 g ai/ha versus 17 or 34 g ai/ha, + KFD-581-01 300 g ai/ha), the “Efficacy at the highest rate versus low or mid rates” value is reported as “decreased efficacy at the highest rate”.
Take `O=c1oc2c(O)c(O)cc3c(=O)oc4c(O)c(O)cc1c4c23` [ellagic acid]: the “Palmer amaranth control, relative effectiveness of treatments” value in the assay with Palmer amaranth [2] (setting [3]) was “most effective; also recorded: more effective than any rate of curcumin or NBD-CL”. In addition, in the assay on Palmer amaranth [2], the “Palmer amaranth control versus KFD-581-01 applied alone” value is “increased levels of Palmer amaranth control” and the “Reduction in above-ground biomass compared to the untreated check” value is reported as “largest reductions in biomass”.
As for `O=c1c(O)c(-c2ccc(O)c(O)c2)oc2cc(O)cc(O)c12` [quercetin], the “Palmer amaranth control, relative effectiveness of treatments” value with Palmer amaranth [2] (setting [3]) is “most effective; also recorded: more effective than any rate of curcumin or NBD-CL”. For the same compound, the “Reduction in above-ground biomass compared to the untreated check” value in the assay on Palmer amaranth [2] was “largest reductions in biomass”.

(Values after patent US20220312768A1, “COMBINATIONS OF AGROCHEMICALS WITH METABOLIC INHIBITORS” (THE BOARD OF TRUSTEES OF THE UNIVERSITY OF ARKANSAS, priority 2021, published 2022).)
